Data taken from patent US6979740B2, “Process for preparation of ring-substituted 8-aminoquinoline analogs as antimalarial agents” (National Institute of Pharmaceutical Education and Research, priority 2003, dated 2005).
In brackets after ≈: the same amount, converted by molar mass. Entries after “also recorded” stand apart in the source; their conditions may differ.

Key:
[1] = tested on: Plasmodium berghei (sensitive strain); experiment: Blood schizontocidal activity against Plasmodium berghei infection in mice; assay type: in vivo; details: P. berghei infected mice, oral, 4 doses D0 to D+3, suppressive = parasitaemia suppressed on D+4 and D+7, curative = cleared up to 28 days
Procedure: (§1) Blood schizontocidal activity evaluation of potential antimalarial compounds against Plasmodium berghei (sensitive strain) and P. yoelii nigeriensis (resistant strain) infection in mice.
(§2) Test Procedure: On day ‘0’, groups of 6 mice each were inoculated, intraperitoneally, with 1×10^7 infected-erythrocytes, from a donor mouse. Four hours later, mice were administered test compounds/chloroquine primaquine/vehicle, orally. A total of 4 doses were given on days D‘0’, D+1, D+2, and D+3. The tail blood smears were made on day D+4 and D+7, stained with Geimsa, and examined microscopically. […] The results of blood-schizontocidal activities for the synthesized compounds are given below in Table 1.

Mastomys coucha = experiment: In vivo methemoglobin (MetHb) toxicity in Mastomys coucha; details: for (%) Methemoglobin (MetHb) Increase: Mastomys coucha, blood 4 h after administration
Procedure: The protocol used is as follows: In vivo MetHb-inducing properties estimation was carried out in Mastomys coucha, a rapid rodent animal model using protocols reported earlier (Srivastava, P., Singh, S., Jain, G. K., Puri, S. K., Pandey, V. C. Ecotox. Environ. Safety. 2000, 45, 236-239). Briefly; six animals per group of both sexes, 2-3 months old and body weight between 40-50 g were used for the present investigation. Drug was administered intraperitoneally (ip) or orally at various dosage for single day/three consecutive days. Primaquine is used as the standard drug for the test. It is known that primaquine is readily absorbed from the gastro-intestinal tract and peak plasma concentration reaches within 3 h and falls within an apparent elimination half time of 6 h. Keeping the above pharmacokinetic profile in mind, the blood samples were collected after 4 h of drug administration and % increase in MetHb was calculated.

P. falciparum = experiment: In vitro antimalarial activity against P. falciparum; assay type: cell-based
Procedure: Protocol: Different drug dilutions [test compounds and chloroquine (positive control)] were prepared in complete RPMI (medium RPMI 1640+10% AB^+ human serum; CRPMI). Fifty μL of each dilution was transferred to the respective well of a microtiter plate in triplicates. Parasitized erythrocytes (PE; mainly rings; 4% parasitaemia; 5% hematokrit) were added to each well. Volume in each well was made up to 200 μL with CRPMI. The plates were incubated at 37° C. in a candle jar. After 24-48 h of incubation, thin smears from each well were made and stained with Giemsa. The number of PE/10,000 cells was counted. […] Using non-linear regression analysis, the IC50 of the test compounds was then calculated.

[2] = cited from earlier work
[3] = tested on: P. yoelii nigeriensis (multidrug resistant strain); experiment: Blood schizontocidal activity against chloroquine and mefloquine drug-resistant P. yoelii nigeriensis in mice; assay type: in vivo; details: oral, 4 doses, listed as R=H, R1=H, R2=C(CH3)3, R3=H
Procedure: as §1, §2

Swiss mice = experiment: Acute toxicity studies in Swiss mice; assay type: in vivo
Procedure: A group of ten mice with equal ratio of male and female were subjected to a single dose of 5, 50, 150 and 450 mg/kg.

Structure (SMILES): COc1cc(NC(C)CCCN)c2nc(C3CCCC3)ccc2c1C1CCCC1 (stereo not shown) [Example 48, N^8-(4-Amino-1-methylbutyl)-2,5-dicyclopentyl-6-methoxy-8-quinolinamine]
- Biological activity at (mg/kg/days × 4) [1]: Inactive at 100 mg/kg

Structure (SMILES): COc1cc(NC(C)CCCN)c2ncccc2c1C1CCCC1 (stereo not shown) [Example 44, N^8-(4-Amino-1-methylbutyl)-5-cyclopentyl-6-methoxy-8-quinolinamine]
- Biological activity at (mg/kg/days × 4) [1]: Inactive at 100 mg/kg

Structure (SMILES): CCCCCOc1c(OC)cc(NC(C)CCCN)c2nc(C(C)(C)C)cc(CC)c12 (stereo not shown) [Example 54, N^8-(4-Amino-1-methylbutyl)-2-tert-butyl-4-ethyl-6-methoxy-5-pentoxy-8-quinolin-amine]
- Biological activity at (mg/kg/days × 4) [1]: Curative at 100 mg/kg

Structure (SMILES): COc1cc(NC(C)CCCNC(=O)[C@@H](N)CCCN)c2nc(C(C)(C)C)ccc2c1 (stereo partly drawn) [Example 61, N^1-[4-(2-tert-Butyl-6-methoxy-8-quinolylamino)pentyl]-(2S)-2,5-diaminopentamide]
- Biological activity at (mg/kg/days × 4) [1]: Curative at 100 mg/kg

Structure (SMILES): COc1cc(NC(C)CCCN)c2ncccc2c1C1CCCCC1 (stereo not shown) [Example 47, N^8-(4-Amino-1-methylbutyl)-5-cyclohexyl-6-methoxy-8-quinolinamine]
- Biological activity at (mg/kg/days × 4) [1]: Inactive at 100 mg/kg

Structure (SMILES): COc1cc(NC(C)CCCN)c2nc(C34CC5CC(CC(C5)C3)C4)ccc2c1 (stereo not shown) [Example 45, N^8-[4-Amino-1-methylbutyl)-2-adamantyl-6-methoxy-8-quinolinamine]
- Biological activity at (mg/kg/days × 4) [1]: Inactive at 100 mg/kg

Structure (SMILES): COc1cc(NC(C)CCCN)c2nc(C(C)(C)C)ccc2c1OC (stereo not shown) [Example 51, N^8-(4-Amino-1-methylbutyl)-2-tert-butyl-5,6-dimethoxy-8-quinolinamine]
- Biological activity at (mg/kg/days × 4) [1]: Inactive at 100 mg/kg

Structure (SMILES): COc1cc(NC(C)CCCNC(=O)[C@H](C)N)c2nc(C(C)(C)C)ccc2c1 (stereo partly drawn) [Example 64, N^1-[4-(2-tert-Butyl-6-methoxy-8-quinolylamino)pentyl]-(2S)-2-aminopropanamide]
- Biological activity at (mg/kg/days × 4) ([1]; listed as 18): suppressive activity at 10 mg/kg
- Biological activity at (mg/kg/days × 4) ([1]; listed as R=H, R1=H, R2=C(CH3)3, R3=S-(Ala)): Suppressive at 10 mg/kg

Structure (SMILES): COc1cc(NC(C)CCCN)c2ncccc2c1C(C)C (stereo not shown) [Example 46, N^8-(4-Amino-1-methylbutyl)-5-isopropyl-6-methoxy-8-quinolinamine]
- Biological activity at (mg/kg/days × 4) [1]: Inactive at 100 mg/kg

Structure (SMILES): CCCCCCCCOc1c(OC)cc(NC(C)CCCN)c2nc(C(C)(C)C)cc(CC)c12 (stereo not shown) [Example 55, N^8-(4-Amino-1-methylbutyl)-2-tert-butyl-4-ethyl-6-methoxy-5-octoxy-8-quinolin-amine]
- Biological activity at (mg/kg/days × 4) [1]: Curative at 100 mg/kg

Structure (SMILES): COc1cc(NC(C)CCCN)c2ncccc2c1 (stereo not shown) [Primaquine, N^8-(4-amino-1-methylbutyl)-6-methoxy-8-quinolinamine, reference compound]
- (%) Methemoglobin (MetHb) Increase (Mastomys coucha; 15 mg/kg/day x 4 days (ip)): 3.38%
- (%) Methemoglobin (MetHb) Increase (Mastomys coucha; 15 mg/kg/day x 4 days (oral)): 3.57%
- (%) Methemoglobin (MetHb) Increase (Mastomys coucha; 50 mg/kg (single dose) (ip)): 3.38%
- (%) Methemoglobin (MetHb) Increase (Mastomys coucha; 50 mg/kg (single dose) (oral)): 2.58%
- P. falciparum (IC50) (P. falciparum; parasitized erythrocytes, 24-48 h incubation): Not active
- time to peak plasma concentration ([2]; absorbed from the gastro-intestinal tract, known property): ≤ 3 h
- half-life ([2]; known property of the drug): 4 to 6 h
- apparent elimination half time ([2]; known property): 6 h

Structure (SMILES): COc1cc(NC(C)CCCN)c2nc(C(C)(C)C)ccc2c1 (stereo not shown) [Example 43, N^8-(4-Amino-1-methylbutyl)-2-tert-butyl-6-methoxy-8-quinolinamine]
- Biological activity at (mg/kg/days × 4) ([1]; listed as 1): curative at a dose of 10 mg/kg
- Biological activity at (mg/kg/days × 4) ([1]; listed as R=H, R1=H, R2=C(CH3)3, R3=H): Curative at 10 mg/kg
- Biological activity at (mg/kg/days × 4) [3]: Curative at 100 mg/kg; also recorded: Curative at 50 mg/kg; also recorded: Curative at 25 mg/kg; also recorded: Suppressive at 10 mg/kg
- acute toxicity (result in words) (Swiss mice; single dose): completely safe at 50 mg/kg
- % Mortality Female (Swiss mice; single dose 5 mg/kg): 0%
- % Mortality Male (Swiss mice; single dose 5 mg/kg): 0%
- % Mortality Total (Swiss mice; single dose 5 mg/kg): 0%
- % Mortality Female (Swiss mice; single dose 50 mg/kg): 0%
- % Mortality Male (Swiss mice; single dose 50 mg/kg): 0%
- % Mortality Total (Swiss mice; single dose 50 mg/kg): 0%
- % Mortality Female (Swiss mice; single dose 150 mg/kg): 0%
- % Mortality Male (Swiss mice; single dose 150 mg/kg): 0%
- % Mortality Total (Swiss mice; single dose 150 mg/kg): 0%
- % Mortality Female (Swiss mice; single dose 450 mg/kg): 0%
- % Mortality Male (Swiss mice; single dose 450 mg/kg): 0%
- % Mortality Total (Swiss mice; single dose 450 mg/kg): 0%
- (%) Methemoglobin (MetHb) Increase (Mastomys coucha; 15 mg/kg/day x 4 days (ip)): 0%
- (%) Methemoglobin (MetHb) Increase (Mastomys coucha; 15 mg/kg/day x 4 days (oral)): 0%
- (%) Methemoglobin (MetHb) Increase (Mastomys coucha; 50 mg/kg (single dose) (ip)): 0%
- (%) Methemoglobin (MetHb) Increase (Mastomys coucha; 50 mg/kg (single dose) (oral)): 0%
- methemoglobin (MetHb) toxicity (result in words) (Mastomys coucha; in vivo): completely devoid of this toxic manifestation in vivo
- IC50 (P. falciparum; Plasmodium falciparum, Erythrocyte, read-out: P. falciparum (IC50)): 0.0391 µg/mL (≈ 0.124 µM)

Structure (SMILES): COc1cc(NC(C)CCCN)c2nc(C3CCCCC3)ccc2c1C1CCCCC1 (stereo not shown) [Example 50, N^8-(4-Amino-1-methylbutyl)-2,5-dicyclohexyl-6-methoxy-8-quinolinamine]
- Biological activity at (mg/kg/days × 4) [1]: Inactive at 100 mg/kg

Structure (SMILES): COc1cc(NCCC(C)CN)c2nc(C(C)(C)C)cc(C)c2c1OC (stereo not shown) [Example 56, N^8-(4-Amino-3-methylbutyl)-2-tert-butyl-5,6-methoxy-4-methyl-8-quinolinamine]
- Biological activity at (mg/kg/days × 4) [1]: Curative at 100 mg/kg

Structure (SMILES): COc1cc(NC(C)CCCNC(=O)[C@@H](N)CCCCN)c2nc(C(C)(C)C)ccc2c1 (stereo partly drawn) [Example 63, N^1-[4-(2-tert-Butyl-6-methoxy-8-quinolylamino)pentyl]-(2S)-2-6-diaminohexanamide]
- Biological activity at (mg/kg/days × 4) ([1]; listed as 17): suppressive activity at 10 mg/kg
- Biological activity at (mg/kg/days × 4) ([1]; listed as R=H, R1=H, R2=C(CH3)3, R3=S-(Lys)): Suppressive at 10 mg/kg

Structure (SMILES): COc1cc(NC(C)CCCN)c2nc(C(C)C)ccc2c1C(C)C (stereo not shown) [Example 49, N^8-(4-Amino-1-methylbutyl)-2,5-diisopropyl-6-methoxy-8-quinolinamine]
- Biological activity at (mg/kg/days × 4) [1]: Inactive at 100 mg/kg
